# Measurements published in US8471005B2 (Cephalon, Inc., priority 2008, dated 2013).
# Like-named read-outs stand apart in the source and are kept apart here.
# Columns and labels:
# ALK = target: T1, ALK (Homo sapiens, UniProt Q9UM73); test: ALK Kinase Assay (ELISA/TRF, PLC-γ substrate); format: biochemical; settings: read-out: ALK Potency
# T1 construct: host or cells: baculovirus expression system
# Procedure, shortened: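 First, plates are coated with substrate (phospholipase C-γ, 10 μg/mL, TBS). Next, 30 ng/ml ALK initiates phosphorylation for 15 min at 37° C. Then Eu-N1 PT66 antibody is added for detection, and a nonlinear dose-response fit of percent inhibition yields IC50.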
# JAK2 = target: T2, JAK2 (Homo sapiens, UniProt O60674); test: Recombinant Human JAK2 Kinase Assay (TRF); format: biochemical; settings: read-out: JAK2 Potency
# T2 construct: host or cells: baculovirus expression system
# T2 sequence (O60674 whole entry): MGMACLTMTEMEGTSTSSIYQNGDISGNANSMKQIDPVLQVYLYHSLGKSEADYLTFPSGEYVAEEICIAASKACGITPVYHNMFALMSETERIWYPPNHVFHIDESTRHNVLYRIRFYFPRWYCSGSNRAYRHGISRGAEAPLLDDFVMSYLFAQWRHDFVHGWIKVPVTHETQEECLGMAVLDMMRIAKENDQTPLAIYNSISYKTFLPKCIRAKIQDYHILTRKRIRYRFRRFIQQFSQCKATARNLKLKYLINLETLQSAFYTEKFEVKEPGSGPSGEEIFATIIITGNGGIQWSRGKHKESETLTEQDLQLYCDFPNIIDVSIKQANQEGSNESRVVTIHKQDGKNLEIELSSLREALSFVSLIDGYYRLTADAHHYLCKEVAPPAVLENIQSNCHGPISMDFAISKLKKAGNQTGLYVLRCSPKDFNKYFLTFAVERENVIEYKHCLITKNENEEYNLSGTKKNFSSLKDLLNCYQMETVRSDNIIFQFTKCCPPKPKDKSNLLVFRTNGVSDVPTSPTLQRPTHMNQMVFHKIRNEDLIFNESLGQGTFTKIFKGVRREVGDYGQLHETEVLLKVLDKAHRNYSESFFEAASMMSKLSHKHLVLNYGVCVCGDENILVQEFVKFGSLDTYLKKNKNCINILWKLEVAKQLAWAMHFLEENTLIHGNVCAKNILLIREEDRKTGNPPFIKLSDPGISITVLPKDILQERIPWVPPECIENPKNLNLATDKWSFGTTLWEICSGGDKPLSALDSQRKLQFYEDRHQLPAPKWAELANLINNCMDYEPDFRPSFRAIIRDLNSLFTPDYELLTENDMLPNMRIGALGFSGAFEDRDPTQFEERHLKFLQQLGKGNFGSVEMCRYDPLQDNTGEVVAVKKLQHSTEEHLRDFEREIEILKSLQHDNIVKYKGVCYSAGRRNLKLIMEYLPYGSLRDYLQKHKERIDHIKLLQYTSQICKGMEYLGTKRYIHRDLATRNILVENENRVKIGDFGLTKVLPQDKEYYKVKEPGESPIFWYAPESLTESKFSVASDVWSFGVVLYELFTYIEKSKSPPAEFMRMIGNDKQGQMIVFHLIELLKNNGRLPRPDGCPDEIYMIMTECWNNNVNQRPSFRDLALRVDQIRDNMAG
# Procedure, shortened: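 Europium-labelled PY100 antibody reported tyrosine phosphorylation of a Neutravidin-captured biotinyl 15-mer peptide by JAK2 (baculovirus-expressed, 15 ng/ml). Conditions: 20 mM HEPES pH 7.2, 0.2 μM ATP, 1 mM MnCl2, 0.1% BSA, DMSO 2.5% final, 20 min at room temperature.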
# [1] = ALK kinase inhibition, 1 μM ATP
# [2] = JAK2 kinase inhibition, 0.2 μM ATP
# T1 sequence (Q9UM73 19-1620): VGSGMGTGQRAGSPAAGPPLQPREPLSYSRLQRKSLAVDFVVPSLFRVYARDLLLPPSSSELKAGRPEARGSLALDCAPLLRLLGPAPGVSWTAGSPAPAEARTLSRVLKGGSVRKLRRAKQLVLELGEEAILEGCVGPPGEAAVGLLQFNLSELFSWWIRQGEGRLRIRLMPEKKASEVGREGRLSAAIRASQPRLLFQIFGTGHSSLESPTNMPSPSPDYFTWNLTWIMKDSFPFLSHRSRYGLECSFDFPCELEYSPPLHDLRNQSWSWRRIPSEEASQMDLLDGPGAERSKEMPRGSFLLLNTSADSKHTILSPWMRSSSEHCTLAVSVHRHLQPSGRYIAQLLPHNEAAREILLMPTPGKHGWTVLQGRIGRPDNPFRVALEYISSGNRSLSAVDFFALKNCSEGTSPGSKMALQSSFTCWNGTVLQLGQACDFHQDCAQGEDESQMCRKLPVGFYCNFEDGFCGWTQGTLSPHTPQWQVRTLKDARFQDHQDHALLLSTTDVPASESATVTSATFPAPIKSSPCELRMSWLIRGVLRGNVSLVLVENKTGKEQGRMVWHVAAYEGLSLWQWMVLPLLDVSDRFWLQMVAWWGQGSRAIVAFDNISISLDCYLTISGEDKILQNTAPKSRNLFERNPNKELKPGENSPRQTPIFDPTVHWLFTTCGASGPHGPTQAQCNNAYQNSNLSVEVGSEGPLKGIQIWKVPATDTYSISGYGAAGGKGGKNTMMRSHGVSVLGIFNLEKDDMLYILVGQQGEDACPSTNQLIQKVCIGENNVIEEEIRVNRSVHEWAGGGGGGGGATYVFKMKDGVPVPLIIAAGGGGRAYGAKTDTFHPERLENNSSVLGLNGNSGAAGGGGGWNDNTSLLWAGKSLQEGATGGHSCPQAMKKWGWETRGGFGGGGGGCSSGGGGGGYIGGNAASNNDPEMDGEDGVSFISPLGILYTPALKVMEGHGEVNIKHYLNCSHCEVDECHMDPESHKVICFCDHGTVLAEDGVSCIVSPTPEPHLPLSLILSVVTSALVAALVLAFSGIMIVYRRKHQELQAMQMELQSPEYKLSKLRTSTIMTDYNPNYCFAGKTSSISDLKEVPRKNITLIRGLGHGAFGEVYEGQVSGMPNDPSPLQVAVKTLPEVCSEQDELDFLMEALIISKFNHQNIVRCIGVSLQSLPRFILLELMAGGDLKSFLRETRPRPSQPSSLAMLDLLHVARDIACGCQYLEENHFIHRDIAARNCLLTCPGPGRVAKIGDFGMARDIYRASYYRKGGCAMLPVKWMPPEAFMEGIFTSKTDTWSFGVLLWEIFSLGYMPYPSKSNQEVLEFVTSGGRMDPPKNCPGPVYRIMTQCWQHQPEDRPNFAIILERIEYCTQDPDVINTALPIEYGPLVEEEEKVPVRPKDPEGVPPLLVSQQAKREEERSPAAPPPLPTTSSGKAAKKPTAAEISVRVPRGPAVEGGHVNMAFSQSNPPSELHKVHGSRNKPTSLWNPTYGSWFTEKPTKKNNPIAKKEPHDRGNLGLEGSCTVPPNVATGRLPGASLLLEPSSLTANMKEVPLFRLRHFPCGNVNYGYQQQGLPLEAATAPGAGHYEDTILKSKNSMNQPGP
Compound,IC50 (ALK; ALK Kinase Inhibition) [nM],IC50 (JAK2; JAK2 Kinase Inhibition) [nM],IC50 (ALK; [1]) [nM],IC50 (JAK2; [2]) [nM]
"Clc1cc(N2CCOCC2)ccc1Nc1ncc2c(Cl)cc(-c3ccccc3)n2n1 [Example 80, (2-Chloro-4-morpholin-4-yl-phenyl)-(5-chloro-7-phenyl-pyrrolo[2,1-f][1,2,4]triazin-2-yl)-amine]",> 10000,< 100,–,–
"CN(c1ccccc1-c1ccc2cnc(Nc3ccc(N4CCOCC4)cc3F)nn12)S(C)(=O)=O [Example 386, N-{2-[2-(2-Fluoro-4-morpholin-4-yl-phenylamino)-pyrrolo[2,1-f][1,2,4]triazin-7-yl]-phenyl}-N-methyl-methanesulfonamide]",100 to 1000,< 100,–,–
"CN1C(=O)Cc2cc(Nc3ncc4ccc(Nc5cccnc5N(C)S(C)(=O)=O)n4n3)ccc21 [Example 387, N-Methyl-N-{3-[2-(1-methyl-2-oxo-2,3-dihydro-1H-indol-5-ylamino)-pyrrolo[2,1-f][1,2,4]triazin-7-ylamino]-pyridin-2-yl}-methanesulfonamide]",1000 to 10000,< 100,–,–
"C[C@H](O)CN1CCN(c2ccc(Nc3ncc4ccc(-c5ccccc5NS(C)(=O)=O)n4n3)cc2)CC1 [Example 430, N-[2-(2-{4-[4-((S)-2-Hydroxy-propyl)-piperazin-1-yl]-phenylamino}-pyrrolo[2,1-f][1,2,4]triazin-7-yl)-phenyl]-methanesulfonamide]",100 to 1000,< 100,–,–
"COc1ccccc1-c1ccc2cnc(Nc3cccc(N4CCC(N5CCOCC5)CC4)c3)nn12 [Example 195, [7-(2-Methoxy-phenyl)-pyrrolo[2,1-f][1,2,4]triazin-2-yl]-[3-(4-morpholin-4-yl-piperidin-1-yl)-phenyl]-amine]",< 100,< 100,–,–
"CS(=O)(=O)c1cccc(-c2ccc3cnc(Nc4ccc(N5CCC(CO)CC5)cc4)nn23)c1 [Example 96, (1-{4-[7-(3-Methanesulfonyl-phenyl)-pyrrolo[2,1-f][1,2,4]triazin-2-ylamino]-phenyl}-piperidin-4-yl)-methanol]",100 to 1000,< 100,–,–
"COc1cc(C2CCN(CC(N)=O)CC2)ccc1Nc1ncc2ccc(-c3ccccc3C#N)n2n1 [Example 517, 2-(4-{4-[7-(2-Cyano-phenyl)-pyrrolo[2,1-f][1,2,4]triazin-2-ylamino]-3-methoxy-phenyl}-piperidin-1-yl)-acetamide]",–,–,< 100,100 to 1000
"CN1CCN(c2ccc(Nc3ncc4ccc(-c5cnn(C)c5)n4n3)cc2)CC1 [Example 18, [4-(4-Methyl-piperazin-1-yl)-phenyl]-[7-(1-methyl-1H-pyrazol-4-yl)-pyrrolo[2,1-f][1,2,4]triazin-2-yl]-amine]",100 to 1000,< 100,–,–
"CN1CCN(c2ccc(Nc3ncc4ccc(C5CCCCC5)n4n3)cc2)CC1 [Example 123, (7-Cyclohexyl-pyrrolo[2,1-f][1,2,4]triazin-2-yl)-[4-(4-methyl-piperazin-1-yl)-phenyl]-amine]",100 to 1000,< 100,–,–
"COc1ccccc1-c1cc(C#N)c2cnc(Nc3ccc(N4CCN(C)CC4)cc3)nn12 [Example 114, 7-(2-Methoxy-phenyl)-2-[4-(4-methyl-piperazin-1-yl)-phenylamino]-pyrrolo[2,1-f][1,2,4]triazine-5-carbonitrile]",100 to 1000,< 100,–,–
"CS(=O)(=O)Nc1cccc(-c2ccc3cnc(Nc4ccc(N5CCN(CCO)CC5)cc4)nn23)c1 [Example 380, N-[3-(2-{4-[4-(2-Hydroxy-ethyl)-piperazin-1-yl]-phenylamino}-pyrrolo[2,1-f][1,2,4]triazin-7-yl)-phenyl]-methanesulfonamide]",< 100,< 100,–,–
"O=C(NCCN1CCOCC1)c1ccc(-c2ccc3cnc(Nc4ccc(N5CCOCC5)cc4)nn23)cc1 [Example 56, N-(2-Morpholin-4-yl-ethyl)-4-[2-(4-morpholin-4-yl-phenylamino)-pyrrolo[2,1-f][1,2,4]triazin-7-yl]-benzamide]",1000 to 10000,< 100,–,–

# More lines, now with the values ahead:
IC50 (ALK; ALK Kinase Inhibition) [nM],IC50 (JAK2; JAK2 Kinase Inhibition) [nM],IC50 (ALK; [1]) [nM],IC50 (JAK2; [2]) [nM],Compound
100 to 1000,< 100,–,–,"CC(C)(C)NS(=O)(=O)c1cccc(-c2ccc3cnc(Nc4cccc(-n5cnnc5)c4)nn23)c1 [Example 1391, N-tert-Butyl-3-[2-(3-[1,2,4]triazol-4-yl-phenylamino)-pyrrolo[2,1-f][1,2,4]triazin-7-yl]-benzenesulfonamide]"
–,–,100 to 1000,< 100,"CC(C)(C)NS(=O)(=O)c1cccc(-c2ccc3cnc(Nc4ccc5c(c4)C(N)C(O)C5)nn23)c1 (centres unmarked) [Example 680, 3-[2-(3-Amino-2-hydroxy-indan-5-ylamino)-pyrrolo[2,1-f][1,2,4]triazin-7-yl]-N-tert-butyl-benzenesulfonamide]"
–,–,< 100,< 100,"COc1ccc(-c2ccc3cnc(Nc4ccc(C5CCN(C)CC5)c(OC)c4)nn23)cn1 [Example 910, [3-Methoxy-4-(1-methyl-piperidin-4-yl)-phenyl]-[7-(6-methoxy-pyridin-3-yl)-pyrrolo[2,1-f][1,2,4]triazin-2-yl]-amine]"
–,–,1000 to 10000,< 100,"CCS(=O)(=O)c1cccc(-c2ccc3cnc(Nc4ccc5ncn(C)c5c4)nn23)c1 [Example 1312, [7-(3-Ethanesulfonyl-phenyl)-pyrrolo[2,1-f][1,2,4]triazin-2-yl]-(3-methyl-3H-benzimidazol-5-yl)-amine]"
< 100,1000 to 10000,–,–,"COc1c(Nc2ncc3ccc(-c4ccccc4N(C)S(C)(=O)=O)n3n2)ccc(N2CCN(C[C@H](C)O)CC2)c1F [Example 1478, N-[2-(2-{3-Fluoro-4-[4-((S)-2-hydroxy-propyl)-piperazin-1-yl]-2-methoxy-phenylamino}-pyrrolo[2,1-f][1,2,4]triazin-7-yl)-phenyl]-N-methyl-methanesulfonamide]"
–,–,< 100,100 to 1000,"COc1cc([C@@H]2CCN(CCO)C[C@@H]2O)ccc1Nc1ncc2ccc(-c3ccccc3N(C)S(C)(=O)=O)n2n1 (racemic) [Example 847, (±)-N-[2-(2-{4-[(3R,4S)-3-Hydroxy-1-(2-hydroxy-ethyl)-piperidin-4-yl]-2-methoxy-phenylamino}-pyrrolo[2,1-f][1,2,4]triazin-7-yl)-phenyl]-N-methyl-methanesulfonamide]"
–,–,< 100,< 100,"Cc1cc(Nc2ncc3ccc(-c4cccc(S(C)(=O)=O)c4)n3n2)ccc1C1CCN(CC(N)=O)CC1 [Example 948, 2-(4-{4-[7-(3-Methanesulfonyl-phenyl)-pyrrolo[2,1-f][1,2,4]triazin-2-ylamino]-2-methyl-phenyl}-piperidin-1-yl)-acetamide]"
–,–,< 100,< 100,"COc1cc(N2CCC(N(C)CCO)CC2)ccc1Nc1ncc2ccc(-c3ccccc3OC)n2n1 [Example 796, 2-[(1-{3-Methoxy-4-[7-(2-methoxy-phenyl)-pyrrolo[2,1-f][1,2,4]triazin-2-ylamino]-phenyl}-piperidin-4-yl)-methyl-amino]-ethanol]"
< 100,< 100,–,–,"CN(c1ccccc1-c1cc(Cl)c2cnc(Nc3ccc(C4CCN(CC(N)=O)CC4)cc3)nn12)S(C)(=O)=O [Example 1553, 2-[4-(4-{5-Chloro-7-[2-(methanesulfonyl-methyl-amino)-phenyl]-pyrrolo[2,1-f][1,2,4]triazin-2-ylamino}-phenyl)-piperidin-1-yl]-acetamide]"
–,–,1000 to 10000,< 100,"Clc1ncccc1-c1ccc2cnc(Nc3ccc(N4CCOCC4)cc3)nn12 [Example 1034, [7-(2-Chloro-pyridin-3-yl)-pyrrolo[2,1-f][1,2,4]triazin-2-yl]-(4-morpholin-4-yl-phenyl)-amine]"
